What was measured:
[1] = system: neuronal cultures exposed to glutamate; details: in vitro, isolated or synthetic CBD; cited from earlier work
[2] = isolated or synthetic CBD; cited from earlier work
[3] = system: shin splits, sciatica tight muscles, aching back pains, and circulation issues; test: Example 12 case report: soaking body in magnesium sulfate with or without Reishi spore powder; assay type: in vivo, human; details: body soaked 30 minutes in 20 gallons of hot water, 1 cup Magnesium sulfate
Protocol: The person tried soaking body in 1 cup of Magnesium sulfate with 20 gallons of hot water for 30 minutes. […] After 72 hours, the person soaked their body in 20 gallons of hot water comprising 1 cup of Magnesium sulfate in combination with 1000 mg of Reishi Mushroom Spore Powder, for 30 minutes.

Compound	prevention of toxicity of glutamate [1]	difference between treated animals and placebo [2]	improvement noticed (pain relief, sleep, mood, circulation, dexterity) [3]
C=C(C)[C@@H]1CCC(C)=C[C@H]1c1c(O)cc(CCCCC)cc1O [CBD, cannabidiol]	could be prevented to some extent	failed to find a difference	
O=S(=O)([O-])[O-].[Mg+2] [Magnesium sulfate]			slight improvement

Source: patent US20250064874A1, “Mushroom Spore, Cannabinoid, and Specified Compositions” (priority 2023, published 2025)
